Reference: PMC7508583, “Discovery and Preclinical Development of Antigiardiasis Fumagillol Derivatives” (Antimicrobial Agents and Chemotherapy, 2020)
In brackets after ≈: the same amount, converted by molar mass. Like-named read-outs stand apart in the source and are kept apart here.

How the values were obtained:
[1] = test system: G. lamblia WB trophozoites; test: Trophozoite growth inhibition, ATP content (ATPlite) assay; format: cell-based; conditions: Giardia duodenalis, 72 h, read-out: Mean [IC50 ± SE(IC50)] G. lamblia WB
Experimental: Antigiardia assays followed by enzyme inhibition determination facilitated the selection of compounds for permeation and stability studies by in vitro methods, prior to advancing to in vivo studies. Compound potency was evaluated first by measuring G. lamblia trophozoite growth as a function of the compound concentration and calculating the IC50 values. Potency in Entamoeba histolytica trophozoites was also determined because of the early report that fumagillin cured amebiasis ([19]). The intent was to test whether the compounds would be suitable to treat gastrointestinal amebiasis rather than the invasive form of the disease, given that the designed strategy was based on reducing compound permeation across the epithelial cell barrier. […] Trophozoite growth was determined by monitoring the ATP cell content using a high-throughput homogeneous assay developed previously for G. lamblia ([57]). The ATP content serves as a marker of cell integrity since ATP degrades rapidly when cells die and the luminescence signal generated by luciferase requires ATP. The same assay was also adopted in 96-well plates for E. histolytica trophozoite growth measurement, as described in Materials and Methods. A similar E. histolytica trophozoite ATP content assay was described previously ([58]). Fumagillin, TNP-470, and a standard-of-care drug (metronidazole) served as positive controls, and cells without the drug (in the presence of 0.5% dimethyl sulfoxide [DMSO]) served as the negative control.
(§1) Trophozoites of G. lamblia isolates WB and GS were grown anaerobically in borosilicate glass screw-cap culture tubes (Fisher Scientific) at pH 7.0 in Keister’s modified TYI-S-33 medium (ATCC). The medium was supplemented with 10% heat-inactivated bovine serum (Sigma-Aldrich) and 0.05% bovine bile (Sigma-Aldrich). To attain low-oxygen-tension conditions, the tubes were filled to 85% to 90% of their total volume capacity and incubated without shaking at 37°C. Subcultures (2 × 10^5 trophozoites per tube) were made three times a week. Detachment of trophozoites for inoculation was achieved by chilling the cultures on ice for 20 min. Culturing and detachment of metronidazole-resistant G. lamblia assemblage A 713M3 and assemblage B 1279-M1 trophozoites followed the same protocol, except that the growth medium was supplemented with metronidazole, with the concentration gradually being increased to 10 μM.
The growth inhibition assays were performed in duplicate, once for each compound, for all compounds except fumagillin, which served as a positive control and whose inhibitory ability was measured multiple times as new sets of compounds were tested. All dry compounds except for fumagillin were dissolved in dimethyl sulfoxide (DMSO; Sigma) at a stock concentration of 10 mM and then diluted 1:100 in growth medium to a final compound concentration of 100 μM; fumagillin was diluted to 20 μM. Compound solution aliquots (100 μl) were prepared by 3-fold serial dilutions in growth medium containing 0.5% DMSO and distributed into 96-well assay plates. This was followed by the addition of 10 μl G. lamblia or E. histolytica culture containing 10,000 trophozoites. Fumagillin served as a positive control, and the medium-diluted DMSO alone served as a negative control. The assay plates were placed in a BD GasPak EZ container system (BD Diagnostics) to create an anaerobic growth environment. The sealed containers were incubated at 37°C for 72 h. Following incubation, 70 μl/well of the ATPlite reagent (PerkinElmer) was added to the assay plates for one-step lysis and ATP level detection. The luminescent signals of the assay plates were measured on an EnSpire 2300 plate reader (PerkinElmer). Concentration-response titration points for each compound were fitted to a 4-parameter logistic nonlinear regression model using the KaleidaGraph tool, yielding the IC50 value and standard error (SE).

[2] = test system: CHO-K1 (CHO) cells; test: CHO cell cytotoxicity, ATP content assay; format: cell-based; conditions: for IC50: Cricetulus griseus, CHO, 48 h, read-out: IC50 CHO
Experimental: Cytotoxicity in CHO-K1 (CHO) cells was also determined using the homogeneous ATP content assay with an ATPlite kit, to enable comparison with the IC50 values in the G. lamblia and E. histolytica trophozoites and provide an initial estimate of toxicity risk. Fumagillin served as a comparative control, untreated cells (including 0.5% DMSO) served as a negative control, and puromycin served as a positive control.
CHO cells (180 μl) were seeded at a density of 5,000 cells/well and incubated for 24 h at 37°C in a 5% CO2 incubator in a 96-well plate. The cells were treated with 20 μl fumagillin or fumagillol derivative solutions diluted to obtain final concentrations of 100, 30, 10, 3, 1, and 0.3 μM. Puromycin was diluted from 10 through 0.03 μM. The plates were incubated for 48 h at 37°C in a 5% CO2 incubator. One hundred microliters per well of ATPlite luminescence reagent was added to the plates, the plates were incubated at room temperature for 30 min, and the luminescence signal was measured. The assay was performed in duplicate.

[3] = test system: G. lamblia WB trophozoites; test: Trophozoite viability MLC determination; format: cell-based, Giardia lamblia; conditions: 3 days treatment, 3 days proliferation without drug
Experimental: (§2) The inhibition of metabolism enables the organism to resume proliferation once treatment is completed. To discriminate between the lethality of the promising compounds and the induction of metabolic inactivity by the promising compounds, the minimum lethal concentration (MLC) values were determined by treating the trophozoites with the test compounds for 3 days and transferring the resulting cultures to medium lacking the compounds for 3 days of proliferation. This assay was described previously for G. lamblia ([18]) and was adapted to E. histolytica in the current study.
as §1
(§3) Compounds were prepared by 2-fold serial dilutions in growth medium containing 0.5% DMSO (diluted from a starting concentration of 1 μM to 12 concentrations for all compounds except metronidazole, fumagillol, and TNP-470, which were diluted from 100 μM), and 100 μl/well was transferred in duplicate to the 96-well culture plate. Ten microliters of G. lamblia trophozoites was plated at a density of 10,000 cells/well. The plates were incubated under anaerobic condition in a BD GasPak EZ container system (BD Diagnostics) at 37°C for 72 h and surveyed visually under a microscope to check trophozoite survival, mobility, and attachment. […] The tubes were incubated under anaerobic condition for 3 days at 37°C and checked under a microscope. The MLC value was the concentration in the tube with the lowest compound concentration without any live organism.

[4] = test system: metronidazole-resistant G. lamblia 1279-M1; test: Trophozoite viability MLC determination; format: cell-based, Giardia lamblia; conditions: metronidazole-resistant strain; 3 days treatment, 3 days proliferation
Experimental: as §2, §1, §3

[5] = test system: metronidazole-resistant G. lamblia 713M3; test: Trophozoite viability MLC determination; format: cell-based, Giardia lamblia; conditions: metronidazole-resistant strain; 3 days treatment, 3 days proliferation
Experimental: as §2, §1, §3

[6] = trophozoite growth, ATP content

Row | Compound | IC50 [1, 6] [nM] | IC50 ([2]; cytotoxicity, ATP content) [nM] | MLC G. lamblia WB [3] | MLC G. lamblia 1279-M1 [4] | MLC G. lamblia 713M3 [5] | IC50 [2] [nM] | IC50 [1] [nM] | selectivity, IC50 for CHO cells/IC50 for amebae ([2]; vs E. histolytica) | selectivity, IC50 for CHO cells/IC50 for giardia ([2]; vs G. lamblia trophozoites)
1 | COC1C(OC(=O)NC(=O)CN2CCOCC2)CCC2(CO2)C1C1(C)OC1CC=C(C)C (stereo not shown) [Compound 3] | 1.6 ± 0.1 | > 100000 | 0.98 nM (≈ 0.443 ng/mL) | 0.98 nM (≈ 0.443 ng/mL) | 3.9 nM (≈ 1.76 ng/mL) | – | – | – | –
2 | COC1C(OC(=O)NC(=O)CN2CCC(O)CC2)CCC2(CO2)C1C1(C)OC1CC=C(C)C (stereo not shown) [Compound 4] | 6.8 ± 0.3 | > 100000 | 3.9 nM (≈ 1.82 ng/mL) | 7.8 nM (≈ 3.64 ng/mL) | 3.9 nM (≈ 1.82 ng/mL) | – | – | – | –
3 | CO[C@@H]1[C@H](OC(=O)Nc2ccc(C(=O)O)cc2)CC[C@]2(CO2)[C@H]1[C@@]1(C)O[C@@H]1CC=C(C)C [Compound 9, 4-(((((3R,4S,5S,6R)-5-methoxy-4-((2R,3R)-2-methyl-3-(3-methylbut-2-en-1-yl)oxiran-2-yl)-1-oxaspiro[2.5]octan-6-yl)oxy)carbonyl)amino)benzoic acid] | 6.3 ± 0.7 | – | 3.9 nM (≈ 1.74 ng/mL) | 7.8 nM (≈ 3.47 ng/mL) | 7.8 nM (≈ 3.47 ng/mL) | > 100000 | – | – | –
4 | CCOC(=O)Cc1ccc(NC(=O)OC2CCC3(CO3)C(C3(C)OC3CC=C(C)C)C2OC)cc1 (stereo not shown) [Compound 11] | 7.4 ± 1.3 | > 100000 | 98 nM (≈ 47.8 ng/mL) | – | – | – | – | – | –
5 | COC1C(OC(=O)N2CCC(O)CC2)CCC2(CO2)C1C1(C)OC1CC=C(C)C (stereo not shown) [Compound 16] | 2.6 ± 0.2 | > 100000 | 1.95 nM (≈ 0.799 ng/mL) | 7.8 nM (≈ 3.19 ng/mL) | 1.95 nM (≈ 0.799 ng/mL) | – | – | – | –
6 | CO[C@@H]1[C@H](OC(=O)/C=C/C=C/C=C/C=C/C(=O)O)CC[C@]2(CO2)[C@H]1[C@@]1(C)O[C@@H]1CC=C(C)C [Fumagillin, reference compound] | – | – | 125 nM (≈ 57.3 ng/mL) | 125 nM (≈ 57.3 ng/mL) | 250 nM (≈ 115 ng/mL) | > 100000 | 9.5 ± 2.2 | – | –
7 | Cc1ncc([N+](=O)[O-])n1CCO [Metronidazole, reference compound] | 5570 ± 877 | – | 7,700 nM | 100,000 nM | 100,000 nM | – | – | > 10 | < 10
